“And” between values parts separate entries of the source, which are not always exact repeats. Equal values may be shown once.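 Each compound was tested at five concentrations against cells in 96-well plates for 48 hours. The concentration for 50% growth inhibition is given as GI50. Definition used: TGI = concentration required for complete inhibition of growth.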
Tests used:
Assay in all cases: NCI-60 cell line screen, 48 h
BT-549 breast = tested on: BT-549 breast
NCI-H522 lung = tested on: NCI-H522 lung
U251 CNS = tested on: U251 CNS
HCT-116 colon = tested on: HCT-116 colon
UACC-257 melanoma = tested on: UACC-257 melanoma
NCI/ADR-RES ovarian = tested on: NCI/ADR-RES ovarian
SW-620 colon = tested on: SW-620 colon
SNB-19 CNS = tested on: SNB-19 CNS
SK-OV-3 ovarian = tested on: SK-OV-3 ovarian
K-562 leukemia = tested on: K-562 leukemia

SMILES | GI50 (BT-549 breast) [µM] | TGI (BT-549 breast) [µM] | GI50 (NCI-H522 lung) | TGI (NCI-H522 lung) [µM] | GI50 (U251 CNS) | TGI (U251 CNS) [µM] | GI50 (HCT-116 colon) | TGI (HCT-116 colon) [µM] | GI50 (UACC-257 melanoma) [µM] | TGI (UACC-257 melanoma) [µM] | GI50 (NCI/ADR-RES ovarian) | TGI (NCI/ADR-RES ovarian) [µM] | GI50 (SW-620 colon) | TGI (SW-620 colon) [µM] | GI50 (SNB-19 CNS) | TGI (SNB-19 CNS) [µM] | GI50 (SK-OV-3 ovarian) | TGI (SK-OV-3 ovarian) [µM] | GI50 (K-562 leukemia) | TGI (K-562 leukemia) [µM]
Cc1ccc(Cl)c(NS(=O)(=O)c2ccc(-c3cnc(C4CC4)o3)cc2)c1 | 0.299 | 14.8 | 0.0566 µM | 20.3 | 0.142 µM | 26.5 | 0.0537 µM | > 36.8 | 8.16 | 50.7 | 0.0618 µM | 6.04 | 0.0528 µM | > 100 | 0.129 µM | > 100 | 3.31 µM | 68.8 | 0.0479 µM | > 100
COc1ccccc1[As]=[As]c1ccccc1OC (centres undefined) | 0.0582 | 0.182 | 0.0165 µM | 0.0376 | 0.0145 µM | 0.0311 | 0.0245 µM | 0.0641 | 0.0775 | 0.218 | 0.0763 µM | 0.306 | 0.0182 µM | 0.0403 | 0.065 µM | 0.193 | 0.158 µM | 0.293 | 0.0324 µM | 
CC(=O)Nc1ccc(S(=O)(=O)N=S(C)C)cc1 |  | > 100 |  | > 100 |  | > 100 |  | > 100 |  | > 100 |  | > 100 |  | > 100 |  | > 100 |  | > 100 |  | > 100
CN(C)Cc1ccc(NC(=O)c2cncc(C#Cc3cnc(N)c4ncccc34)c2)cc1F | 19.4 | 39.6 | 17.2 µM | 53.9 | 1.93 µM | 3.89 | 1.8 µM | 3.48 | 7.31 | 26.7 | 2.2 µM | 4.54 | 2.23 µM | 4 |  |  |  |  | 0.0566 µM | 1.85
Cc1nc2sc3c(N)ncnc3c2c(C)c1C | > 25 | > 25 | > 25 µM | > 25 | > 25 µM | > 25 | > 25 µM | > 25 | > 25 | > 25 | > 25 µM | > 25 | > 25 µM | > 25 | > 25 µM | > 25 | > 25 µM | > 25 | > 25 µM | > 25
COc1ccc(-c2cc(-c3ccc(Cl)cc3)nc(NCCCCNc3ccnc4cc(Cl)ccc34)n2)cc1 | 13.4 | 28.6 | 3.65 µM | 14.6 | 11 µM | 23.8 | 1.5 µM | 2.92 | 1.96 | 4.22 | 1.6 µM | 3.37 | 1.76 µM | 3.46 | 11 µM | 25.7 | 13 µM | 27.3 | 1.83 µM | 5.02
COc1cc2ncnc(Nc3ccc(Oc4ccnc(C)c4)c(C)c3)c2cc1NC(=O)CC1CCSS1 (centres undefined) | 1.2 | 2.94 | 0.861 µM | 2.19 | 1.15 µM | 2.81 |  |  | 1.02 | 2.35 | 2.14 µM | > 50 | 1.14 µM | 2.71 | 1.08 µM | 2.49 | 0.854 µM | 1.63 | 0.253 µM | 1.18
COc1ccc2c(c1)CCc1cc(OC)ccc1/[N+]([O-])=[N+]\2[O-] |  | 29.8 |  | 13.7 |  | 38.6 |  |  |  | 35 |  | > 62 |  | 26.1 |  | 39 |  | 35.6 |  | > 72.1
CC[C@H](C)[C@H](NC(=O)[C@H]1CCCCN1C)C(=O)N(C)[C@H](C[C@@H](OC(C)=O)c1cccc(C(=O)N[C@@H](Cc2ccccc2)C[C@H](C)C(=O)O)n1)C(C)C | 0.0025 | 0.0116 | 0.0005 µM and < 0.0025 µM | < 0.0025 | 0.000744 µM and 0.0025 µM | > 25 | 0.00225 µM and 0.0025 µM | 4.16 |  |  | 0.0584 µM and 0.00946 µM | > 25 | 0.000493 µM and 0.0025 µM | > 25 | 0.00138 µM and 0.0025 µM | > 25 | 0.00348 µM and 0.0025 µM | > 25 | 0.000539 µM and 0.0025 µM | > 25
CCC(C)C1=C(O)[N+]2([O-])Oc3ccc(C4=C(O)C(=O)C(c5ccc(O)cc5)=C(O)C4=O)cc3OC2(C(C)CC)C(=O)N1O (centres undefined) | 8.74 | > 100 | 19 µM | > 100 | 6.25 µM | > 100 | 5.02 µM | > 100 | 11.5 | > 100 | 7.86 µM | > 100 | 25.4 µM | > 100 | 4.95 µM | 83.6 |  |  | 8.03 µM | > 100
CNC(=O)c1c(F)cccc1Nc1nc(Nc2cc3c(cc2OC)CCN3C(=O)CN(C)C)nc2[nH]ccc12 | 19.8 | 48.2 | 1.56 µM | 3.63 | 2.39 µM | 6.61 | 1.54 µM | 3.33 |  |  | 9.69 µM | > 61.5 | 1.14 µM | 3.42 | 7.04 µM | > 62.8 | 11.5 µM | 27.5 | 2.58 µM | 6.41
COc1ccc(S(=O)(=O)Nc2c(/C=C\c3cc(OC)c(OC)c(OC)c3)ccc(OC)c2O)cc1 | 0.0501 | 47 | 0.0202 µM | 0.0536 | 0.0374 µM | > 100 | 0.032 µM | > 100 |  |  | 0.155 µM | 0.598 | 0.0408 µM | > 100 | 0.0602 µM | > 100 |  |  | 0.0286 µM | > 100
COc1cc2c(c(OC)c1OC)-c1ccc(SC)c(=O)cc1[C@@H](NC(=O)C(F)(F)F)CC2 |  | > 100 |  | < 0.01 |  | 56.3 |  | 4.42 |  | > 4.64 |  | 79.9 |  | > 100 |  | > 100 |  |  |  | > 85.2
CCCCOc1ccc(/C=N/Nc2cc(C)nc3ccc(Br)cc23)cc1 | 1.77 | 3.42 | 1.72 µM | 3.21 | 1.8 µM | 3.27 | 1.77 µM | 3.31 | 1.66 | 3.18 | 1.96 µM | 3.85 |  |  | 1.86 µM | 3.41 | 1.66 µM | 3.05 | 1.71 µM | 3.97
